Like-named read-outs stand apart in the source and are kept apart here. Each block holds one compound with its values, some of them ahead of it.
Experiments:
[1] = tested on: DU145 prostate cancer cells; experiment: MTS cell viability assay in DU145 prostate cancer cells; type: cell-based
Description: (§1) Then, MTS assays for cell viability were carried out to determine the IC50 values. Four samples were tested for each isatin derivative at each concentration in each cell line, and the averaged data were shown in Table 2a and FIGS. 1˜4.
(§2) IC50 of values of isatin derivatives Compounds 101˜123 were determined in cancer cell lines DU145 and A2058 respectively.

[2] = tested on: A2058 human melanoma cells; experiment: MTS cell viability assay in A2058 melanoma cells; type: cell-based
Description: as §1, §2

[3] = tested on: OVCAR5 ovarian cancer cells; experiment: MTS cell viability assay in OVCAR5 ovarian cancer cells; type: cell-based; conditions: Homo sapiens, OVCAR-5, OVCAR5, 48 hr, 1% DMSO
Description: (§3) Each type of cells (5,000 or 10,000 cells/well) were treated with different concentration (0.1 μM to 20 μM in 1% DMSO of cisplatin or Compound 2, 9, 12, 16 or 22 respectively for 48 hr). Then, MTS assays for cell viability were carried out to determine the IC50 values. Four samples were tested for each test compound at each concentration for each type of cells, and the averaged data were shown in Table 4 and FIGS. 6-8.

[4] = tested on: A2780 cisplatin-resistant ovarian cancer cells; experiment: MTS cell viability assay in A2780 cisplatin-resistant ovarian cancer cells; type: cell-based; conditions: for IC50: A2780 cisplatin-resistant, 48 hr, 1% DMSO, MTS
Description: as §3

[5] = tested on: OCI-Ly3 non-Hodgkins B cell lymphoma cells; experiment: MTS cell viability assay in OCI-Ly3 lymphoma cells; type: cell-based; conditions: Homo sapiens, OCI-Ly3, 48 hr, 1% DMSO
Description: as §3, with “concentration (0.01” for “concentration (0.1”, “to 5” for “to 20”, “of the test compound” for “of cisplatin or Compound 2, 9, 12, 16 or 22”, “Table 5” for “Table 4”, “FIGS. 10˜12.” for “FIGS. 6-8.”

[6] = tested on: PANC-1 pancreatic cancer cells; experiment: MTS cell viability assay in PANC-1 pancreatic cancer cells; type: cell-based; conditions: Homo sapiens, PANC-1, 48 hr, 1% DMSO
Description: as §3, with “to 10” for “to 20”, “of Compound 2” for “of cisplatin”, “Compound” for “Compound 2, 9, 12, 16 or”, “Table 3” for “Table 4”, “and FIG. 5.” for “and FIGS. 6-8.”

[7] = tested on: SKOV3 ovarian cancer cells; experiment: MTS cell viability assay in SKOV3 ovarian cancer cells; type: cell-based; conditions: Homo sapiens, SK-OV-3, SKOV3, 48 hr, 1% DMSO
Description: as §3

[8] = tested on: EGFR; experiment: Immunoblot of EGFR phosphorylation in DU145 cells; type: cell-based; conditions: DU145, 0.5-5 μM, 4 hr, EGF 10 ng/ml, vs negative control, concentration-associated
Description: (§4) DU145 prostate cancer cells were incubated in complete growth medium in 100 mm petri dishes (1×10^6 cells per dish) for 24 hr. Compound 2 was added at a concentration of 0.5 μM, 1.0 μM, 2.5 μM, and 5 μM respectively. Cell samples that were not added any Compound 2 were negative controls. After 4 hr, EGF (10 ng/ml final concentration) was added to culture media and cells were lysed using Laemmli buffer. Differences in the phosphorylation of Erk1/2 and EGFR were determined by immunoblot analysis (FIG. 13).

[9] = tested on: Erk1/2; experiment: Immunoblot of Erk1/2 phosphorylation in DU145 cells; type: cell-based; conditions: DU145, 0.5-5 μM, 4 hr, EGF 10 ng/ml, vs negative control, concentration-associated
Description: as §4

[10] = tested on: Her2/Neu; experiment: Immunoblot of Her2/Neu phosphorylation in A2058 cells; type: cell-based, human; conditions: A2058, 0.5-5 μM, 4 hr, vs negative control, concentration-associated
Description: (§5) A2058 melanoma cells were incubated in complete growth medium in 100 mm petri dishes (1×10^6 cells per dish) for 24 hr. Compound 2 was added at a concentration of 0.5 μM, 1.0 μM, 2.5 μM, and 5 μM respectively. Cell samples that were not added any Compound 2 were negative controls. After 4 hr, cells were lysed using Laemmli buffer. Differences in the phosphorylation of Her2/Neu, Jak2, Src, Stat3, AKT, and Erk1/2 were determined by immunoblot analysis (FIG. 14a).

[11] = tested on: Jak2; experiment: Immunoblot of Jak2 phosphorylation in A2058 cells; type: cell-based, human; conditions: A2058, 0.5-5 μM, 4 hr, vs negative control, concentration-associated
Description: as §5
as §5, with “of” for “of 0.5 μM, 1.0 μM, 2.5 μM, and”, “μM.” for “μM respectively.”, “Cells” for “After 4 hr, cells”, “buffer 0.5 hr, 1 hr, 2 hr, 4 hr, 6 hr and 24 hr after treatment.” for “buffer.”, “of” for “of Her2/Neu,”, “14b).” for “14a).”

[12] = tested on: Src; experiment: Immunoblot of Src phosphorylation in A2058 cells; type: cell-based, human; conditions: A2058, 0.5-5 μM, 4 hr, vs negative control, concentration-associated
Description: as §5
as §5, with “of” for “of 0.5 μM, 1.0 μM, 2.5 μM, and”, “μM.” for “μM respectively.”, “Cells” for “After 4 hr, cells”, “buffer 0.5 hr, 1 hr, 2 hr, 4 hr, 6 hr and 24 hr after treatment.” for “buffer.”, “of” for “of Her2/Neu,”, “14b).” for “14a).”

[13] = tested on: Stat3; experiment: Immunoblot of Stat3 phosphorylation in A2058 cells; type: cell-based, human; conditions: A2058, 0.5-5 μM, 4 hr, vs negative control, concentration-associated
Description: as §5
as §5, with “of” for “of 0.5 μM, 1.0 μM, 2.5 μM, and”, “μM.” for “μM respectively.”, “Cells” for “After 4 hr, cells”, “buffer 0.5 hr, 1 hr, 2 hr, 4 hr, 6 hr and 24 hr after treatment.” for “buffer.”, “of” for “of Her2/Neu,”, “14b).” for “14a).”

[14] = tested on: AKT; experiment: Immunoblot of AKT phosphorylation in A2058 cells; type: cell-based, human; conditions: A2058, 0.5-5 μM, 4 hr, vs negative control, concentration-associated
Description: as §5
as §5, with “of” for “of 0.5 μM, 1.0 μM, 2.5 μM, and”, “μM.” for “μM respectively.”, “Cells” for “After 4 hr, cells”, “buffer 0.5 hr, 1 hr, 2 hr, 4 hr, 6 hr and 24 hr after treatment.” for “buffer.”, “of” for “of Her2/Neu,”, “14b).” for “14a).”

[15] = tested on: Erk1/2; experiment: Immunoblot of Erk1/2 phosphorylation in A2058 cells; type: cell-based, human; conditions: A2058, 0.5-5 μM, 4 hr, vs negative control, concentration-associated
Description: as §5
as §5, with “of” for “of 0.5 μM, 1.0 μM, 2.5 μM, and”, “μM.” for “μM respectively.”, “Cells” for “After 4 hr, cells”, “buffer 0.5 hr, 1 hr, 2 hr, 4 hr, 6 hr and 24 hr after treatment.” for “buffer.”, “of” for “of Her2/Neu,”, “14b).” for “14a).”

[16] = tested on: Ly-3 lymphoma SQ xenografts; experiment: Ly-3 lymphoma SQ xenografts in mice; type: in vivo; conditions: oral, 100 mg/kg once a day, 7th treatment day, P=0.03 vs vehicle
Description: Ly-3 lymphoma cells (1×10^7) were subcutaneously injected to II-2 rg(ko)/NOD-SCID female mice. 7 mice were treated with vehicle as the control group once a day. 7 mice were treated with Compound 109 as the treatment group by oral administration at 100 mg/kg dose, once a day. Mice were euthanized at the 7th treatment day by IACUC of the Beckman Research Institute of City of Hope. In the figure, * means P=0.03 wherein P values less than 0.05 were considered statistically significant.

[17] = tested on: PaCa2 pancreatic cancer cells; experiment: MTS cell viability assay in PaCa2 pancreatic cancer cells; type: cell-based; conditions: PaCa-2, PaCa2, 48 hr, 1% DMSO
Description: as §3, with “to 10” for “to 20”, “of Compound 2” for “of cisplatin”, “Compound” for “Compound 2, 9, 12, 16 or”, “Table 3” for “Table 4”, “and FIG. 5.” for “and FIGS. 6-8.”

[18] = tested on: Daudi B Cell Burkitt lymphoma cells; experiment: MTS cell viability assay in Daudi lymphoma cells; type: cell-based; conditions: Homo sapiens, 48 hr, 1% DMSO
Description: as §3, with “concentration (0.01” for “concentration (0.1”, “to 5” for “to 20”, “of the test compound” for “of cisplatin or Compound 2, 9, 12, 16 or 22”, “Table 5” for “Table 4”, “FIGS. 10˜12.” for “FIGS. 6-8.”

[19] = tested on: Anaplastic Large T cell lymphoma cells; experiment: MTS cell viability assay in anaplastic large T cell lymphoma cells; type: cell-based; conditions: 48 hr, 1% DMSO
Description: as §3, with “concentration (0.01” for “concentration (0.1”, “to 5” for “to 20”, “of the test compound” for “of cisplatin or Compound 2, 9, 12, 16 or 22”, “Table 5” for “Table 4”, “FIGS. 10˜12.” for “FIGS. 6-8.”

[20] = tested on: Cyclin B1; experiment: Immunoblot of Cyclin B1 content in DU145 and A2058 cells; type: cell-based; conditions: DU145 or A2058 cells, 0.1, 1 or 2.5 μM, 24 hr, higher dosage
Description: (§6) DU145 prostate cancer cells or A2058 melanoma cells were incubated with Compound 22 at a concentration of 0.1, 1, or 2.5 μM or DMSO for 24 hr. Cells were lysed using Laemmli buffer. The differences in the content of Cyclin B1 and phosphorylation of Cdc25C were determined by immunoblot analysis.

[21] = tested on: Cdc25C; experiment: Immunoblot of Cdc25C phosphorylation in DU145 and A2058 cells; type: cell-based; conditions: DU145 or A2058 cells, 0.1, 1 or 2.5 μM, 24 hr, higher dosage
Description: as §6

[22] = tested on: tubulin; experiment: In vitro tubulin polymerization assay (HTS-Tubulin polymerization assay kit); type: biochemical; conditions: 1 μM, 4 mg/mL tubulin, 1 hr, 37° C.
Description: To determine whether Compound 22 inhibits tubulin formation in vitro, HTS-Tubulin polymerization assay kits (cytoskeleton) were used. The assay procedure was performed using the manufacturer's protocol. Briefly, each 4 mg tubulin was resuspended with 1 mL of the cold G-PEM (80 mM PIPES pH6.9, 2 mM MgCl2, 0.5 mM EGTA) buffer to make the final concentration of 4 mg/mL. The reaction volume was 100 μL. Tubulin polymerization was monitored with the kinetic mode at […] for 1 hr at 37° C. […] Together, compound 22 is a promising lead compound to develop new anticancer drugs as new class of microtubule inhibitors.

[23] = Homo sapiens, DU-145, 48 h, DU145, 48 hr, 0.05 to 10 μM in 1% DMSO, MTS (Table 2a), read-out: DU145 IC50
[24] = Homo sapiens, A2058, 48 h, 0.05 to 10 μM in 1% DMSO, MTS (Table 2a), read-out: A2058 IC50

- IC50 [1, 23]: 470 nM
- IC50 [2, 24]: 660 nM
- IC50 [3]: 840 nM
- IC50 [4]: 390 nM
- IC50 ([4]; Homo sapiens, A2780, 48 h): 750 nM
- IC50 [5]: 260 nM
Compound: O=C1C(=O)N(CCCc2ccccc2)c2ccc(-c3cccnc3)cc21 [Compound 9]
- viability of A2780 cisplatin-resistant ovarian cancer cells in comparison of cisplatin ([4]; FIG. 9, compared with cisplatin): significantly reduced the viability

- IC50 [1, 23]: 790 nM
- IC50 [2, 24]: 780 nM
- IC50 [6]: 970 nM
- IC50 [7]: > 5000 nM
- IC50 [3]: 800 nM
Compound: O=C1C(=O)N(Cc2ccccc2)c2ccc(-c3cccnc3)cc21 [Compound 2]
- phosphorylation of EGFR [8]: less phosphorylations
- phosphorylation of Erk1/2 [9]: less phosphorylations
- phosphorylation of Her2/Neu [10]: less phosphorylations
- phosphorylation of Jak2 [11]: less phosphorylations
- phosphorylation of Src [12]: less phosphorylations
- phosphorylation of Stat3 [13]: less phosphorylations
- phosphorylation of AKT [14]: less phosphorylations
- phosphorylation of Erk1/2 [15]: less phosphorylations

- IC50 ([1]; DU145, compound in DMSO, 48 hr, MTS (Table 2b), read-out: IC50 value, DMSO, DU145): 480 nM
- IC50 ([1]; Homo sapiens, DU-145, 48 h, DU145, compound in water, 48 hr, MTS (Table 2b), read-out: IC50 value, Water, DU145): 630 nM
- IC50 ([2]; A2058, compound in DMSO, 48 hr, MTS (Table 2b), read-out: IC50 value, DMSO, A2058): 580 nM
- IC50 ([2]; Homo sapiens, A2058, 48 h, A2058, compound in water, 48 hr, MTS (Table 2b), read-out: IC50 value, Water, A2058): 1000 nM
- IC50 [5]: 63 nM
Compound: O=C1C(=O)N(C/C=C/c2cccnc2)c2ccc(-c3cccnc3)cc21 [Compound 109]
- efficacy (tumor volume) in Ly-3 lymphoma SQ xenografts [16]: statistically significantly showed efficacy

- IC50 [1, 23]: 300 nM
- IC50 [2, 24]: 210 nM
- IC50 [6]: 100 nM
- IC50 [17]: 96 nM
- IC50 [3]: 340 nM
- IC50 ([4]; Homo sapiens, A2780, 48 h): 440 nM
- IC50 [5]: 39 nM
- IC50 [18]: 38 nM
- IC50 [19]: 130 nM
Compound: O=C1C(=O)N(C/C=C/c2ccccc2)c2ccc(-c3cccnc3)cc21 [Compound 22]
- content of Cyclin B1 [20]: increased amount of Cyclin B1
- phosphorylation of Cdc25C [21]: less phosphorylation of Cdc25C
- tubulin polymerization in vitro [22]: substantially inhibited tubulin polymerization

Reference: patent US9828342B2, “Isatin derivatives, pharmaceutical compositions thereof, and methods of use thereof” (CITY OF HOPE, priority 2012, dated 2017)
